# Experimental data published in patent US7264932B2, “Nuclease inhibitor cocktail” (Applera Corporation, priority 1999, dated 2007).
# Experiments:
# RNase A [1] = biological target: T1, RNase A (Bos taurus, UniProt P61823); test: Radiolabeled RNA probe degradation gel assay, RNase A; assay type: biochemical
# T1 sequence (P61823 27-150): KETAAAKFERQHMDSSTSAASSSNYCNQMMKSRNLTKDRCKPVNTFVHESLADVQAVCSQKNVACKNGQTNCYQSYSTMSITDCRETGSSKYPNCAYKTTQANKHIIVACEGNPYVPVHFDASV
# Description: (§1) The activity of an anti-nuclease cocktail is readily determined using radiolabeled RNA or DNA to detect the inhibition of nuclease by anti-nuclease antibodies in the anti-nuclease cocktail. […] Assay buffer, nuclease and an anti-nuclease cocktail are then added to 0.5 ml microfuge tubes. A mixture comprising assay buffer, RNA or DNA and radiolabeled RNA or DNA is added to the microfuge tubes, and the tubes are vortexed and microfuged. After incubation of the tubes at 37° C. for 30 minutes, a portion of the tube contents is removed and placed into gel loading buffer. After mixing, the combination is loaded onto a gel, typically a 8M urea/5% acrylamide gel, which is exposed to film.
# (§2) Radiolabeled RNA was used to detect the inhibition of RNase A, RNase T1, and RNase 1 by specific antibodies.
# (§3) The “MIX” was prepared by combining 10× Assay Buffer (0.9 μl/rxn), 5 mg/ml yeast RNA (0.4 μl/rxn), ^32P-labeled β actin RNA (1 μl/rxn), and nuclease-free H2O (6.7 μl/rxn), for a total of 9 μl/rxn.
# (§4) 1× Assay Buffer was added first. Then Specific RNase Cocktail, Specific Anti-RNase Cocktail and MIX were added. The tubes are vortexed and microfuged, then incubated at 37° C. for 30 min (Table 9).
# (§5) At the end of the incubation time, 10 μl of solution was removed from the tube and placed into 10 μl Gel Loading Buffer II. The combination was mixed thoroughly and loaded onto a 8M urea/5% acrylamide gel. The gel was exposed to film for 30 min. at −80° C. with an intensifying screen.
# RNase T1 = biological target: T2, RNase T1 (Aspergillus oryzae, UniProt P00651); test: Radiolabeled RNA probe degradation gel assay, RNase T1; assay type: biochemical; conditions: 2.5 to 5 ug of heparin
# T2 sequence (P00651 27-130): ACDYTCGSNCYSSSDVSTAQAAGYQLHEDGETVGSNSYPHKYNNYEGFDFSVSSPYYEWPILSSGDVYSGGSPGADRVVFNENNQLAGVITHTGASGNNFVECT
# Description: The activity of anti-nuclease antibodies is readily determined using radiolabeled RNA or DNA to detect the inhibition of RNase or DNase by the anti-nuclease antibodies. In general, the nuclease and anti-nuclease antibody are separately diluted, typically in 1× assay buffer. Assay buffer, nuclease and anti-nuclease antibody are then added to 0.5 ml microfuge tubes. For assaying anti-RNase activity, a mixture comprising assay buffer, RNA and radiolabeled RNA is added to the microfuge tubes. The “MIX” of assay buffer, RNA and radiolabeled RNA is generally prepared by combining 10× Assay Buffer (0.9 μl/rxn), 5 mg/ml yeast RNA (0.4 μl/rxn), ^32-β actin RNA (1 μl/rxn), and nuclease-free H2O (6.7 μl/rxn) for a total of 9 μl/rxn. The tubes are vortexed and microfuged, then incubated at 37° C. for 30 minutes. After incubation, a portion of the tube contents is removed and placed into gel loading buffer. Then the tube contents and the gel loading buffer are mixed, and the combination is loaded onto a gel, typically a 8M urea/5% acrylamide gel, which is exposed to film. […]
# The activity of an anti-nuclease cocktail is readily determined using radiolabeled RNA or DNA to detect the inhibition of nuclease by anti-nuclease antibodies in the anti-nuclease cocktail. […]
# diluted liver lysate = conditions: 5 mm edta, liver lysate 1:5, e. coli total rna, room temperature 5.5 min
# Description: Tissues (5 mg) were dounced in 50 ul of non-denaturing, neutral ph buffer (24 mm hepes, ph 7.2, 50 mm nac1, 1 mm mgc12). Diluted tissue lysates (pancreas 1:20,000; liver 1:5) or 5 pg/ul bovine rnase a were pre-incubated with 0.2u/ul rip, 50 mm citrate or 5 mm edta for 30 sec. A total of 100 pg/ul e. Coli total rna was then added to the mixture and incubated at room temperature for an additional 4 min (FIG. 1., Lanes 1-5) or 5.5 min (lanes 6&7). […] The sample (1 ul) was analyzed by bioanalyzer 2100 after separation on an ma labchip.
# RNase A [2] = test: Salt-based inhibition of RNase activity (RNaseAlert); assay type: biochemical, bovine; conditions: increasing salt concentrations, fluorescence 490/520 nm
# [3] = tested on: total RNase activity in pancreas lysate; test: RNaseAlert fluorescent assay, pancreas lysate; assay type: biochemical, mouse
# Description: (§6) Flash-frozen mouse tissues (5 mg) were dounced in 50 ul of 24 mM Hepes, pH 7.2, 50 mM NaCl, 1 mM MgCl2. RNase activity was measured using Ambion's fluorescent RNaseAlert™ assay ([…] substrate, 10 ug/ml ultrapure BSA) via BMG POLARstar Optima Fluorometer according to the manufacturer's protocol. In addition to measuring total RNase activity, lysates were treated with Ap5A, heat (90 C for 10 min), or 0.5 U/ul RIP. Tissue lysate dilutions: pancreas 1:16,200; liver 1:17; thymus 1:17; kidney 1:17; spleen 1:810; lung 1:810. The data were normalized to maximum RNase activity observed in tissue lysate with kidney being the tissue with the lowest RNase activity and assigned the arbitrary unit of 1. […] However, RIP is specific to RNase A superfamily enzymes, where Ap5A, as a RNA analogue, is expected to be a more general RNase inhibitor.
# Pancreatic tissue (5 mg) was dounced in 50ul of 24 mM Hepes, pH 7.2, 50 mM NaCl, 1 mM MgCl2. Diluted pancreas lysate (1:12,000) was subjected to a 1/10 volume of negatively charged SP resin. RNase activity of the clarified lysate was measured using. Ambion's fluorescent RNaseAlert™ assay (40 nM substrate, 10 ug/ml ultrapure BSA) via BMG POLARstar Optima, according to the manufacturer's instructions. Resin treatment removed >95% of total RNase activity in diluted pancreas lysate. […] In this case, inactivation is accomplished by binding of the positively-charged RNase to the negatively-charged sulfopropyl resin. Thus the RNases can be physically removed from the tissue lysate and separated from the RNA that they might otherwise degrade over time.
# [4] = tested on: total RNase activity in liver lysate; test: RNaseAlert fluorescent assay, liver lysate; assay type: biochemical, mouse; conditions: heated + 2.9 mM Ap5A
# Description: as §6
# [5] = tested on: total RNase activity in thymus lysate; test: RNaseAlert fluorescent assay, thymus lysate; assay type: biochemical, mouse; conditions: heated + 2.9 mM Ap5A
# Description: as §6
# [6] = tested on: total RNase activity in kidney lysate; test: RNaseAlert fluorescent assay, kidney lysate; assay type: biochemical, mouse; conditions: heated + 2.9 mM Ap5A
# Description: as §6
# RNase A, 1, and T1 = test: Anti-RNase antibodies / Specific Anti-RNase Cocktail with added non-antibody inhibitor; assay type: biochemical; conditions: 0.1–0.5% SDS added to cocktail
# Description: as §1, §2, §3, §4, §5
# diluted pancreas lysate = test: Intactness of total RNA (RNA LabChip), diluted pancreas lysate; assay type: biochemical, mouse; conditions: 1% SDS, pancreatic lysate 1:20,000, mouse liver total RNA, 25 C 4 min
# Description: A total of 100 pg/ul e. […].
# Pancreatic lysate (0.1 mg/ml) was diluted 1:20,000 in 24 mM Hepes, pH 7.2, 50 mM NaCl, 1 mM MgCl2 and pre-incubated with either 1% SDS or 6.25 mM OVA for 30 s prior to the addition of 2 ug mouse liver total RNA. Reactions were incubated at 25 C for an additional 4 min, quenched, and analyzed on an RNA LabChip.
# Mouse pancreatic tissue (5 mg) was disrupted in 50 ul of 24 mM Hepes, pH 7.2, 50 mM NaCl, 1 mM MgCl2. The diluted lysate (1:20,000) was pre-incubated with 50 uM Benzopurpurin B (BpB) for 30 sec and then added to 100 ng/ul mouse liver total RNA (Ambion) and incubated at 23 C for an additional 4 min. Samples were quenched in a guanidinium lysis buffer, and the RNA purified via MEGAclear™ MAG-96 and eluted with 20 ul nuclease-free water. […] These experiments were conducted in the same fashion except that 100 uM BpB was employed. The sample (1 ul) was analyzed by 2100 BioAnalyzer software (Agilent) after separation on an RNA LabChip.
# Mouse pancreatic tissue (5 mg) was dounced in 50 ul of 24 mM Hepes, pH 7.2, 50 mM NaCl, 1 mM MgCl2. A diluted lysate (1:20,000) was pre-incubated with 100 uM BpB or the analog Benzopurpurin 4B (Bp4B) for 30 sec and then added to 100 ng/ul mouse liver total RNA (Ambion) and incubated at 23 C for an additional 4 min. Samples were quenched in a guanidinium lysis buffer, and the RNA purified via MEGAclear™ MAG-96 and eluted with 20 ul nuclease-free water. The sample (1 ul) was analyzed by 2100 BioAnalyzer software (Agilent) after separation on an RNA LabChip.
# Pancreatic tissue (5 mg) was dounced in 50 ul of 24 mM Hepes, pH 7.2, 50 mM NaCl, 1 mM MgCl2. The lysate was diluted (1:20,000) and then pre-incubated with 200 uM of 467929. […] All samples were pre-incubated for 30 sec before being added to 100 ng/ul mouse liver total RNA (Ambion) and incubated at 23C for an additional 4 min. The RNA was then immediately purified via MEGAclear™ MAG-96 and eluted with 20 ul nuclease-free water. The recovered RNA (1 ul) was analyzed by 2100 BioAnalyzer software after separation on an RNA LabChip.
compound,measurement,setting,value
heparin,effect on activity of RNases A,RNase A [1]; 2.5 to 5 ug of heparin,*This amount of heparin did not effect the activities of RNases A and Rnases T1.
same,effect on activity of Rnases T1,RNase T1,*This amount of heparin did not effect the activities of RNases A and Rnases T1.
"O=C(O)CN(CCN(CC(=O)O)CC(=O)O)CC(=O)O [EDTA, ethylenediamine tetraacetic acid]",protection of total RNA from degradation,diluted liver lysate,significant protection
[Cl-].[Na+] [NaCl],effect on RNase A activity,RNase A [2],inhibits
O=C([O-])CC(O)(CC(=O)[O-])C(=O)[O-].[Na+].[Na+].[Na+] [NaCitrate],effect on RNase A activity,RNase A [2],Inhibits
Nc1ncnc2c1ncn2[C@@H]1O[C@H](COP(=O)(O)OP(=O)(O)OP(=O)(O)OP(=O)(O)OP(=O)(O)OC[C@H]2O[C@@H](n3cnc4c(N)ncnc43)[C@H](O)[C@@H]2O)[C@@H](O)[C@H]1O [Ap5A],% Inhibition,[3]; Pancreas + 232 uM Ap5A,44.3%
same,Slope/sec,[3]; Pancreas + 232 uM Ap5A,13.58
same,% Inhibition,[3]; Pancreas + 1.3 mM Ap5A,87.5%
same,Slope/sec,[3]; Pancreas + 1.3 mM Ap5A,3.05
same,% Inhibition,[3]; Pancreas + 2.9 mM Ap5A,97.7%
same,Slope/sec,[3]; Pancreas + 2.9 mM Ap5A,0.55
same,% Inhibition,[4],97.2%
same,Slope/sec,[4],0.46
same,% Inhibition,[5],88.5%
same,Slope/sec,[5],0.33
same,% Inhibition,[6],98.9%
same,Slope/sec,[6],0.02
"CCCCCCCCCCCCOS(=O)(=O)[O-].[Na+] [SDS, sodium dodecyl sulfate]",concentration that inhibited activity of RNase A,RNase A [1]; 50 pg of RNase A,0.25% SDS inhibited activity of 50 pg of RNase A.
same,"effect on anti-RNase A, 1, and T1 action of Specific Anti-RNase Cocktail","RNase A, 1, and T1",Addition of 0.1–0.5% SDS to Specific Anti-RNase Cocktail strengthened anti-
same,protection of RNA from degradation,diluted pancreas lysate,help remedy RNA degradation
